Results taken from patent US10939692B2, “Method for culturing aquatic animals with aspartyl-dipeptides” (Cysal GmbH, priority 2015, dated 2021).

Key:
Assay type in all cases: in vivo
Oncorhynchus mykiss = assay: Aquaculture screening experiment, trout growth on arginine-limited basal diet; settings: after four months
Text: (§1) Nearly all of the […] species relevant to aquaculture belong to three supra-orders: Ostariophysi ([…], catfish, and allies), Protacanthopterygii (e.g. pike, trouts and salmon), and Acanthopterygii (around 50% of all fish species, including all […], flatfish, tuna, etc.). In order to cover as much of the phylogenetic range as possible, fish species were chosen from each of these supra-orders (Ostariophysi; Clarias gariepinus, Protacanthopterygii; Oncorhychus mykiss, Acanthopterygii; Oreochromis niloticus). Additionally, kuruma shrimp (Marsupenaeus japonicus) was chosen as a representative species of crustacean due to its significance in the high-end market. At the end of the experiment, the individual weights were recorded and the data analyzed statistically. All experiments started with young fry or postlarvae. All species except trout were housed during the experiments in parallel recirculation systems of fresh water. Marsupenaeus japonicus shrimp were maintained in seawater. Oreochromis niloticus and Clarias gariepinus were housed in 200-L tanks filtered by a commercial pond filter. Trout were housed in a smaller system composed of 70-l tanks connected in series to account for the species' higher oxygen demand and preference for stronger current. Water quality (oxygen levels, nitrite, and nitrate) was monitored weekly. Partial water replacements were performed if the desired levels were exceeded. (<3 mg O2/l, detectable nitrite, >25 mg/l nitrate). In order to examine the efficiency of dipeptide products after as feed supplements for aquaculture, β-L-aspartyl-arginine as obtained in Example 1 was used in combination with basal arginine-limited diets. The latter diets were supplemented with the said dipeptide products to a concentration of 1.25 or 2.5% (wt/wt), or with corresponding isonitrogenous concentrations of an aspartic acid-arginine mixture (to determine the effect of free amino acids alone). Basal diets were formulated from individual components in common use in the aquaculture feed industry to ensure realistic conditions. […]

Oreochromis niloticus = assay: Aquaculture screening experiment, Tilapia growth on arginine-limited basal diet; settings: after two months
Text: as §1, with “[…] Basal diet composition for Tilapia and Kuruma shrimp contained a calculated arginine content of about 1.35% (of diet) which is lower than” for “In order to examine”, “minimum requirements” for “efficiency”, “both Tilapia and Kuruma shrimp: corn 40%, soybean meal 21%, rice polishings 14%, gluten 11%, wheat bran 5%, herring meal 5%, monocalcium phosphate 0.8%, limestone 0.7%, L-lysine HCl 0.7%, fish oil 0.5%, vitamin mineral premix 0.3%, sodium bicarbonate 0.15%, salt 0.15%, pellet binder 0.05%.” for “dipeptide products after as feed supplements for aquaculture, β-L-aspartyl-arginine as obtained in Example 1 was used in combination with basal arginine-limited diets. The latter diets were supplemented with the said dipeptide products to a concentration of 1.25 or 2.5% (wt/wt), or with corresponding isonitrogenous concentrations of an aspartic acid-arginine mixture (to determine the effect of free amino acids alone). Basal diets were formulated from individual components in common use in the aquaculture feed industry to ensure realistic conditions.”

[1] = system: Atlantic salmon (Salmo salar L.); assay: Salmon nutrition experiment (bioavailability, arginine retention, growth, safety)
Text: The objective of the experiment was to examine the in vivo bioavailability of the above described “β-L-aspartyl-R” dipeptides in fish for the first time and consequently to determine their applicability as a substitute of free amino acids sources in Atlantic salmon (Salmo salar L.) nutrition. Therefore, varying supplementation levels of β-L-aspartyl-L-arginine in contrast to a mixture of free amino acids L-arginine and L-aspartic acid were compared.
315 Atlantic salmon (96.33 g±11.47 g; Danish Salmon AS, Hirtshals, DK) were acclimatized for 14 d in the experimental rearing system. The tanks of the system were part of a recirculation system (3.5 m^3 water volume, turnover rate 2 h^−1). The water purification system consisted of a mechanical filter, a moving bed filter, and a protein skimmer. Water quality parameters were maintained within a safe range for the fish (7.2-7.6 pH; GMH 3530, Digital pH-/mV-/Thermometer, Greisinger electronic, D; 22.5±0.3° C., 8.5±0.4 mg/l O2; Handy Polaris; Oxy-Guard International A/S, Birkerod, Denmark; <0.4 mg/l NH4—N; <0.24 mg/l NO2—N; Microquant test kit for NH4 and NO2; Merck KgaA, Darmstadt, Germany). The light conditions were set to 14 h/10 h light/dark cycle. During acclimatization fish were fed a commercial salmon feed (Aller Gold 4 mm; AllerAqua A/S, Christiansfeld, Denmark). The fish were reared in 150 l aquaria. Triplicate fish groups (3×15) were fed to apparent satiation twice a day over a period of 10 weeks.
In order to fulfill the nutritional demands of Atlantic salmon (except for arginine content), the different concentrations of the test substances were added to a basal diet which was produced with the following common ingredients used for fish nutrition: Fish meal (Clupea sp.) 9.91%, Blood meal 1.93%, Casein 3.05%, Corn gluten 20.80%, Wheat gluten 22.09%, Biolysine™ 1.48%, Wheat starch 25.43%, Fish oil 11.13%, Ca2PO4 0.46%, Vit/min premix 0.93%, TiO2 0.93%, and Carboxymethyl cellulose ad 100% (after adding the test supplements). The experiment was carried out with the resulting 7 dietary treatments:
Samples of all experimental groups were analyzed for arginine retention in the lab of LUFA in Kiel. […] Crude protein content (N×6.25) was determined by the Kjeldahl method, crude lipid content after hydrolysis with hydrochloric acid followed by a petroleum ether extraction using a Soxhlet extraction system, DM after drying at 103° C. until constant weight, and ash content after 4 h incineration at 550° C. in a combustion oven (P300; Nabertherm, Lilienthal, Germany). Furthermore, gross energy was measured in a bomb calorimeter (C 200; IKA, Staufen, Germany).
The statistical analyses were performed using SPSS 21.0 for Windows (SPSS Inc., Chicago, U.S.). […] Data were analyzed for variance homogeneity by Levene (p<0.05). […]

Marsupenaeus japonicus = assay: Aquaculture screening experiment, kuruma shrimp growth on arginine-limited basal diet; settings: after two months
Text: Nearly all of the […] species relevant to aquaculture belong to three supra-orders: Ostariophysi ([…], catfish, and allies), Protacanthopterygii (e.g. pike, trouts and salmon), and Acanthopterygii (around 50% of all fish species, including all […], flatfish, tuna, etc.). In order to cover as much of the phylogenetic range as possible, fish species were chosen from each of these supra-orders (Ostariophysi; Clarias gariepinus, Protacanthopterygii; Oncorhychus mykiss, Acanthopterygii; Oreochromis niloticus). Additionally, kuruma shrimp (Marsupenaeus japonicus) was chosen as a representative species of crustacean due to its significance in the high-end market. At the end of the experiment, the individual weights were recorded and the data analyzed statistically. All experiments started with young fry or postlarvae. […] Water quality (oxygen levels, nitrite, and nitrate) was monitored weekly. […] Basal diet composition for Tilapia and Kuruma shrimp contained a calculated arginine content of about 1.35% (of diet) which is lower than the minimum requirements of both Tilapia and Kuruma shrimp: corn 40%, soybean meal 21%, rice polishings 14%, gluten 11%, wheat bran 5%, herring meal 5%, monocalcium phosphate 0.8%, limestone 0.7%, L-lysine HCl 0.7%, fish oil 0.5%, vitamin mineral premix 0.3%, sodium bicarbonate 0.15%, salt 0.15%, pellet binder 0.05%. […]

Clarias gariepinus = assay: Aquaculture screening experiment, African catfish growth on arginine-limited basal diet; settings: after four months
Text: as §1

## N=C(N)NCCC[C@H](NC(=O)C[C@H](N)C(=O)O)C(=O)O [Asp-Arg, β-L-aspartyl-L-arginine]
Oncorhynchus mykiss; 1.25% supplement in basal diet
  mean (wt in g): 13.63 g
Oncorhynchus mykiss; 2.5% supplement in basal diet
  mean (wt in g): 15.33 g
Oncorhynchus mykiss; feed containing 2.5% dipeptides
  average final weight, % of the control: around 115 % of the control
Oreochromis niloticus; 1.25% supplement in basal diet
  mean (wt in g): 1.84 g
Oreochromis niloticus; 2.5% supplement in basal diet
  mean (wt in g): 2.03 g
Oreochromis niloticus; feed supplemented with 2.5% dipeptide
  final weight, % of the control: over 120 % of the control
[1]; Atlantic salmon, 0.2-0.6% in diet, 10 weeks
  safety (mortalities, behavior, postmortem inspection, tissue and blood analysis): safe for fish
[1]; Atlantic salmon, 0.6% supplementation, 10 weeks (FIG. 1)
  weight gain at the highest level of supplementation: not seen
[1]; Atlantic salmon, 10 weeks, compared to the free amino acid groups
  whole body protein level: higher body protein level
[1]; in vivo
  bioavailability of the dipeptide form versus the free form: five-fold better
Marsupenaeus japonicus; 1.25%
  average weight versus amino acid feeding and control: higher than that of the amino acid feeding and that of the control group
Marsupenaeus japonicus; 1.25% supplement in basal diet, average weight
  mean: 0.35 g
Clarias gariepinus; 1.25% (wt/wt) supplement in basal diet
  mean (wt in g): 6.63 g
Clarias gariepinus; 2.5% (wt/wt) supplement in basal diet
  mean (wt in g): 8.42 g
Clarias gariepinus; addition of dipeptides
  average final weight, % of the control: around 144 % of the control
